According to patent US6573296B2, “Therapeutic quassinoid preparations with antineoplastic, antiviral, and herbistatic activity” (priority 1997, dated 2003):
Where two headings read alike, the source gives them in different places.

Tests used:
C38 = test: soft agar disk diffusion zone of inhibition assay; format: cell-based, mice
M17/Adr = conditions: multidrug resistant, p-glycoprotein expressing mammary tumor versus leukemia
[1] = system: leukemia and solid tumor cells; test: in vitro differential cytotoxicity, solid tumor versus leukemia; format: cell-based; conditions: for solid tumor selectivity in vitro: solid tumor versus leukemia zones
L1210 = test: soft agar disk diffusion zone of inhibition assay; format: cell-based, mice
[2] = system: colon adenocarcinoma #38 [C38]; test: in vivo chemotherapy of SC transplanted tumor; parameters: species or system mice; conditions: for Cures / MTD Total Dose: C38; for Cures: IV at MTD, cured/total mice; for MTD Total Dose: IV, days: Glaucarubinone 3,5-10, Holacanthone 3-12, Glaucarubolone 3-6, Chaparrinone 3-9; for in vivo activity against C38, in words: mouse
Source text: (§1) Mice. Inbreds mice used were C57B1/6, C3H/He, Balb/c, and DBA/2; hybrids were: B6D2F1 (C57B1/6 females×DBA/2 males), and CD2F1 (Balb/c females×DBA/2 males). All mice were obtained from the Frederick Cancer Research Facility, Frederick, Md.
(§2) Tumors were maintained in the mouse strain of origin and were transplanted into either an appropriate F1 hybrid or the strain of origin for therapy trials. All mice were over 17 g at the start of therapy; the range of individual body weights in each experiment was within 2 g. The mice were supplied food and water ad libitum.
(§3) Antitumor Agents. The compound easily dissolved in the diluent which consisted of 3% [V/V (100%-Pure)] Ethanol, 1% (V/V) polyoxyethylanesorbitan monopalmitate (P.O.E.40) and 96% sterile distilled water. The primary route of administration was intravenous (IV).
(§4) […] Chemotherapy. The methods of protocol design, tumor transplantation, drug treatment, endpoint determination, definition of terms, toxicity evaluation, data analysis, quantification of tumor cell kill, and the biologic significance of the drug treatment results with transplantable tumors have been presented. The following is a brief summary of those methods as they apply to the work described.
(§5) The animals necessary to begin an experiment were pooled, implanted bilaterally SC on day 0 with 30 to 60 mg tumor fragments using a 12 gauge trocar, and again pooled before randomization to the various treatment and control group. Chemotherapy was either started within 3 days after tumor implantation while the number of cells per mouse was relatively small (10^7 to 10^8 cells), or allowed to grow to palpation (about 3×10^8 cells) in a more advanced stage trial.
(§6) Tumors were measured with a caliper either once or twice weekly (as needed) until either tumors exceeded 1500 mg or cure was. assured. Tumor weights were estimated from two-dimensional measurements:
(§7) Tumor Weight (mg)=(a×b^2)/2, where a and b are the tumor length and width (mm) respectively.
(§8) Tumor growth delay. (T-C value), where T is the median time (in days) required for the treatment group tumors to reach a predetermined size, and C is the median time (in days) for the control group tumors to reach the same size. Tumor-free survivors were excluded from these calculations (cures were tabulated separately).
(§9) Calculation of tumor cell kill. For SC growing tumors, the log10 cell kill was calculated from the following formula: [formula]
(§10) Where T-C is the tumor growth delay (in days) as described above and Td is the tumor volume doubling time (in days), the latter estimated from the best fit straight line from a log-linear growth plot of the control-group tumors in exponential growth (500 to 1500 mg range). The conversion of the T-C values of log10 cell kill is possible because the Td for tumors regrowing post-treatment approximated the Td values of the tumors in untreated control mice.
(§11) Determination of activity by tumor growth inhibition (T/C value). Measurements were carried out simultaneously in both the treatment and control groups. When the control group tumors reached approximately 750-1500 mg in size (median of group), the median tumor weight of each group was determined (including zeros).

[3] = system: mammary adenocarcinoma 17/A/ADR [Mamm 17/Adr]; test: in vivo chemotherapy of SC transplanted tumor; parameters: species or system mice
Source text: as §1, §2, §3, §4, §5, §6, §7, §8, §9, §10, §11

[4] = system: mammary adenocarcinoma #16/C [Mamm 16/C]; test: in vivo chemotherapy of SC transplanted tumor; parameters: species or system mice; conditions: for MTD Total Dose: MAM 16/C, IV days: Glaucarubinone 1-11, Holacanthone 1-9/, Chaparrinone 1-6; for in vivo activity against Mam 16/C, in words: mouse
Source text: as §1, §2, §3, §4, §5, §6, §7, §8, §9, §10, §11

H8 = test: soft agar disk diffusion zone of inhibition assay; format: cell-based, human
Source text: (§12) The following human tumors were used: Human adenosquamous lung tumor H-125 (7) and colon tumors H8, HCT-116, and CX-1 were used for in vitro testing only. Each human cell line was maintained in culture until plating was done. HCT-116, H8, and CX-1 were maintained in McCoy's media and heat inactivated fetal bovine serum (11% FBS). It was passaged (1:5 dilution) twice week following enzymatic dissociation using a trypsin/PBS-EDTA mixture. H-125 was maintained in CMRL/Fischer media (1:1) with 11% FBS. It was mechanically dissociated and passaged (3:10 dilution) weekly. For the plating assay, all cells were mechanically dispersed and diluted in the CMRL/Fischer. media mixture.

CX-1 = test: soft agar disk diffusion zone of inhibition assay; format: cell-based, human
Source text: as §12

soybean hypocotyls = test: growth of sections cut from dark-grown soybean hypocotyls; conditions: Excised segments of etiolated soybean hypocotyls (18 h)
[5] = system: porcine pseudorabies virus; conditions: rabbit kidney cells, visually monitored
Tomato plants = test: growth of plants in peat after treatment; format: in vivo
Method: Tomato plants about 3.5 cm high at the time of treatment were grown in peat in a flat of 1.5 inch diameter compartments and were treated with either aqueous simalikalactone (solution QD-1) or aqueous glaucarubolone (solution QD-2) containing 0.1% Triton X-100. The final volume/plant was 10 μ1 for the aqueous solution and 200 µl of the aqueous solution containing Triton X-100. […] With the aqueous treatment, plants also were inhibited but not as markedly as with detergent.

human rhinovirus-14 = test: cytopathic effect of rhinovirus in HeLa cells; format: cell-based; conditions: HeLa cells (Wisconsin strain), visually observed
Method: C. HeLa cells (Wisconsin strain, Berlin, Germany) were contacted with human rhinovirus-14. Infected cells (Wisconsin strain) were visually observed. […] HeLa cells were not killed by any compounds used. Cells of other HeLa lines (eg. ATCC CCL2) were killed. Glaucarubolone, simalikalactone D and chaparrinone were tested on cell killing and virus production by primary blood monocytes. All three drugs were tested at five concentrations (0, 10^−9, 10^−8, 10^−7, and 10^−6 M). Drugs were given at different times pre-infection, given at the time of infection, or were administered at different times post-infection.

NADH oxidase = NADH oxidase activity of soybean hypocotyl plasma membrane vesicles; format: biochemical; conditions: Isolated PM vesicles; read-out: ED50, Inhibition of NADH oxidase
P388 = test: soft agar disk diffusion zone of inhibition assay; format: cell-based, mice; conditions: 0.25 ug/disk
[6] = system: pancreatic ductal adenocarcinoma #03 [PO3]; test: in vivo chemotherapy of SC transplanted tumor; parameters: species or system mice; conditions: for % T/C / Cures / Log Cell Kill / MTD Total Dose: PO3
Source text: as §1, §2, §3, §4, §5, §6, §7, §8, §9, §10, §11

MX-1 = test: soft agar disk diffusion zone of inhibition assay; format: cell-based, human; conditions: dose line (5, 1 or 0.3 ug/disk) not clear
C16 = test: in vivo chemotherapy of SC transplanted tumor; parameters: species or system mice
Source text: as §1, §2, §3, §4, §5, §6, §7, §8, §9, §10, §11

[7] = 5 ug/disk (figure before the colon)
[8] = IV days: Glaucarubinone 4-15, Peninsularinone 3-13
[9] = C16, IV days 3,5,7,9,11,13 (Twice Daily)
[10] = IV days 4,6,8,10,12,14 (Twice Daily)

Compound: CC1=CC(=O)[C@@H](O)[C@]2(C)[C@H]3[C@@]4(O)OC[C@@]35[C@@H](C[C@@H]12)OC(=O)C[C@H]5[C@@H](C)[C@H]4O [Chaparrinone]
- zone of inhibition C38 (C38; 5 ug/disk): 920 ZONE UNITS
- differential / selectivity for M17/Adr (Mam 17/Adr) (M17/Adr): demonstrated selectivity
- solid tumor selectivity in vitro [1]: demonstrated solid tumor selectivity
- zone of inhibition L1210 (L1210; [7]): 5:200 ZONE UNITS
- Cures [2]: 3/5
- MTD Total Dose [2]: 232 mg/kg
- in vivo activity against C38, in words [2]: therapeutic activity
- % T/C ([3]; MAM 17/AdR, IV days 1-10): 42%
- Cures ([3]; MAM 17/AdR, IV days 1-10): 0/5
- MTD Total Dose ([3]; MAM 17/AdR, IV days 1-10): 260 mg/kg
- in vivo activity against Mam 17/Adr, in words ([3]; mouse, in vivo): activity
- MTD Total Dose [4]: 90 mg/kg
- in vivo activity against Mam 16/C, in words [4]: activity
- zone of inhibition H8 (H8; 5 ug/disk): 270 ZONE UNITS
- zone of inhibition CX-1 (CX-1; 5 ug/disk): 480 ZONE UNITS

Compound: CC(=O)O[C@H]1C(=O)O[C@@H]2C[C@H]3C(C)=CC(=O)[C@@H](O)[C@]3(C)[C@H]3[C@@]4(O)OC[C@]32[C@@H]1[C@@H](C)[C@H]4O [Holacanthone]
- zone of inhibition C38 (C38; 12 ug/disk): 950 ZONE UNITS
- differential / selectivity for M17/Adr (Mam 17/Adr) (M17/Adr): demonstrated selectivity
- solid tumor selectivity in vitro [1]: demonstrated solid tumor selectivity
- zone of inhibition L1210 (L1210; 12 ug/disk): 12:310 ZONE UNITS
- Cures [2]: 0.5
- MTD Total Dose [2]: 188 mg/kg
- MTD Total Dose [4]: 80 mg/kg
- zone of inhibition CX-1 (CX-1; 12 ug/disk): 900 ZONE UNITS

Compound: CC[C@@H](C)C(=O)O[C@H]1C(=O)O[C@@H]2C[C@H]3C(C)=CC(=O)[C@@H](O)[C@]3(C)[C@H]3[C@@H](O)[C@H](O)[C@]4(C)OC[C@]32[C@@H]14 [simalikalactone D]
- EC50 (soybean hypocotyls; read-out: ED50, Inhibition of 2,4-D (1 μM)-induced growth): 3500 nM
- EC50 (soybean hypocotyls; read-out: ED50, Inhibition of control growth): 2500 nM
- cytopathic effect of porcine pseudorabies virus [5]: Inhibitory effect was also observed
- effect on tomato plants, in words (Tomato plants; 1:1000 and 1:10,000 dilutions in detergent solution, 30 days after treatment): still inhibited
- effect on tomato plants, in words (Tomato plants; 100 Mm diluted 1:100 in 0.1% Triton X-100): did not grow and eventually died
- cytopathic effect of human rhinovirus-14 (human rhinovirus-14): Cytopathic effect was delayed
- EC50 (NADH oxidase): 400 nM

Compound: (−)-Peninsularinone
- zone of inhibition (P388), printed in C38 column (P388): 700 (P388) ZONE UNITS
- cytopathic effect of porcine pseudorabies virus [5]: Inhibitory effect was also observed
- zone of inhibition L1210 (L1210; 0.25 ug/disk): 0.25:310 ZONE UNITS
- % T/C [6, 8]: 3%
- Cures [6, 8]: 0/5
- Log Cell Kill [6, 8]: 2.0
- MTD Total Dose [6, 8]: 4.3 mg/kg
- cytopathic effect of human rhinovirus-14 (human rhinovirus-14): Cytopathic effect was delayed
- zone of inhibition H8 (H8; 0.25 ug/disk): 510 ZONE UNITS

Compound: Ailanthinone
- zone of inhibition C38 (C38; 2 ug/disk): 340 ZONE UNITS
- solid tumor selectivity in vitro [1]: no solid tumor selectivity
- zone of inhibition L1210 (L1210; 2 ug/disk): 2:290 ZONE UNITS
- zone of inhibition CX-1 (CX-1; 2 ug/disk): 300 ZONE UNITS

Compound: Glaucarubinone
- zone of inhibition (MX-1), printed in H8 column (MX-1): 600 (MX-1) ZONE UNITS
- zone of inhibition C38 (C38; 0.3 ug/disk): 450 ZONE UNITS
- zone differential between C38 and L1210 (C38; 1 ug/disk): 400 units
- zone of inhibition C38 (C38; 1 ug/disk): 700 ZONE UNITS
- zone of inhibition C38 (C38; 5 ug/disk): 950 ZONE UNITS
- differential / selectivity for M17/Adr (Mam 17/Adr) (M17/Adr): no differential
- zone differential for PO3 ([1]; PO3 versus L1210, compared with 400 units for C38): similar, or greater differential
- solid tumor selectivity in vitro [1]: solid tumor selective
- zone of inhibition L1210 (L1210; 0.3 ug/disk): 160 ZONE UNITS
- zone of inhibition L1210 (L1210; 1 ug/disk): 300 ZONE UNITS
- zone of inhibition L1210 (L1210; [7]): 600 ZONE UNITS
- % T/C (C16; [9]): 42%
- Cures (C16; [9]): 0/5
- MTD Total Dose (C16; [9]): 18 mg/kg
- in vivo activity against Col26, in words (C16; mouse, in vivo): Antitumor activity
- Cures [2]: 1/5
- MTD Total Dose [2]: 9.1 mg/kg
- in vivo activity against C38, in words [2]: curative activity
- % T/C [6, 10]: 0%
- Cures [6, 10]: 0.6
- Log Cell Kill [6, 10]: 3.1
- MTD Total Dose [6, 10]: 16 mg/kg
- % T/C [6, 8]: 15%
- Cures [6, 8]: 1/6
- Log Cell Kill [6, 8]: 1.5
- MTD Total Dose [6, 8]: 16 mg/kg
- in vivo activity against PO3, in words ([6]; mouse, in vivo): curative activity
- MTD Total Dose [4]: 24 mg/kg
- in vivo activity against Mam 16/C, in words [4]: Antitumor activity
- zone of inhibition CX-1 (CX-1; dose line (5, 1 or 0.3 ug/disk) not clear): 400 ZONE UNITS

Compound: quassimarine
- cytopathic effect of porcine pseudorabies virus [5]: Inhibitory effect was also observed
- cytopathic effect of human rhinovirus-14 (human rhinovirus-14): Cytopathic effect was delayed
